target: ROCK2 (Homo sapiens (Human), UniProt O75116); assay: ROCK2 assay (peptide phosphorylation, LABCHIP 3000 Reader); type: biochemical; settings: 5 μM ATP, 1.5 μM peptide substrate, dose-response
Protocol: After incubation, the reaction was terminated by the addition of EDTA and the phosphorylated and non-phosphorylated peptides separated using a LABCHIP®3000 Reader (Caliper Life Sciences). […] Compounds were tested in dose-response format, and the inhibition of kinase activity was calculated at each concentration of compound. […] Representative Examples were tested in the ROCK2 assay described above and found having ROCK2 inhibitory activity.

ROCK2, sequence (O75116 whole entry, species assumed): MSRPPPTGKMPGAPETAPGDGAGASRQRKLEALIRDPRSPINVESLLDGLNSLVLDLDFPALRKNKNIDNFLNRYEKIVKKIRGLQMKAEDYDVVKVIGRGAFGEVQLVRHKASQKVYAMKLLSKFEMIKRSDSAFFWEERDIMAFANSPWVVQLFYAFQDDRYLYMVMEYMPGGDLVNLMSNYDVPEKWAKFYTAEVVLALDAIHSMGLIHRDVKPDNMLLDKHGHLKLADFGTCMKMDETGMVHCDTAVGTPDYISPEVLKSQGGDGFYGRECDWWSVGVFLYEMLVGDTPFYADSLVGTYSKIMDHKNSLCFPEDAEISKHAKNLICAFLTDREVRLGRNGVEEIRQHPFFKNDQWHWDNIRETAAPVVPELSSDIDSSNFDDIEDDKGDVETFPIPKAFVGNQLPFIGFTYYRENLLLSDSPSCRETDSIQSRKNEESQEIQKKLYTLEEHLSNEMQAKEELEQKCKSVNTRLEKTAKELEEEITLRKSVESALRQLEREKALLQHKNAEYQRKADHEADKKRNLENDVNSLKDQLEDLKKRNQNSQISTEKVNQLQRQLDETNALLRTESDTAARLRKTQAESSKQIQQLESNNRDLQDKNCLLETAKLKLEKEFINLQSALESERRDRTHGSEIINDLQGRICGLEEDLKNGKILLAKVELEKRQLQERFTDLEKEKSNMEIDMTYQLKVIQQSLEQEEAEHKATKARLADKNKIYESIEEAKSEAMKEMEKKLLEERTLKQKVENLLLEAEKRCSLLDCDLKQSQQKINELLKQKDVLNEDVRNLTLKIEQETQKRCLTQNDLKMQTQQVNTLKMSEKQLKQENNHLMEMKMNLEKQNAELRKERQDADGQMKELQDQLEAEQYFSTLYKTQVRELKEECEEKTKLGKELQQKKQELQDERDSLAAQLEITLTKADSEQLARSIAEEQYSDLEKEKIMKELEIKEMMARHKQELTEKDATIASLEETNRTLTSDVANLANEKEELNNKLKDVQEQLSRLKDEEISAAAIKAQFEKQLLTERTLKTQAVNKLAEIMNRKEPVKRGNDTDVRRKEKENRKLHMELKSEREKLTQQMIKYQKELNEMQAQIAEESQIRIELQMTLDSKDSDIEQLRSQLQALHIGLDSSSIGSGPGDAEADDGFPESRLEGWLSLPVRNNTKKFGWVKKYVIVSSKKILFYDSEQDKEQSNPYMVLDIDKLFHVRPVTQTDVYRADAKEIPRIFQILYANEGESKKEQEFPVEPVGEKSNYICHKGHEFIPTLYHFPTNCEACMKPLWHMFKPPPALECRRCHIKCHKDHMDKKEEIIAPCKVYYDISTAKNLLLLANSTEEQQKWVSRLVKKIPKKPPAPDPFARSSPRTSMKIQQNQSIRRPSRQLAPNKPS

First: Cc1c(C(=O)N[C@H]2C[C@]3(C2)C[C@H](Oc2nc(C4CC4)sc2C(N)=O)C3)cnn1-c1ccc(Cl)cc1 (stereo partly drawn) [Example 45, 2-cyclopropyl-4-{[(aR)-6-[1-(4-chlorophenyl)-5-methyl-1H-pyrazole-4-amido]spiro[3.3]heptan-2-yl]oxy}-1,3-thiazole-5-carboxamide]
Second: Cc1c(C(=O)N[C@H]2C[C@]3(C2)C[C@H](Oc2nc(C4CC4)sc2C(N)=O)C3)cnn1-c1ccccc1 (stereo partly drawn) [Example 68, 2-cyclopropyl-4-{[(aR)-6-(5-methyl-1-phenyl-1H-pyrazole-4-amido)spiro[3.3]heptan-2-yl]oxy}-1,3-thiazole-5-carboxamide]
The IC50 of the first is 4.3-fold lower: 25 nM for the first, 108 nM for the second. The first is the more potent here.

Going from `Cc1c(C(=O)N[C@H]2C[C@]3(C2)C[C@H](Oc2nn(C)cc2C(N)=O)C3)cnn1-c1ccc(C#N)cc1` (stereo partly drawn) [Example 46, 1-(4-cyanophenyl)-5-methyl-N-[(aR)-6-[(4-carbamoyl-1-methyl-1H-pyrazol-3-yl)oxy]spiro[3.3]heptan-2-yl]-1H-pyrazole-4-carboxamide] to `Cc1c(C(=O)N[C@H]2C[C@]3(C2)C[C@H](Oc2nn(C)cc2C(N)=O)C3)cnn1-c1ccc(Cl)cc1` (stereo partly drawn) [Example 47, 1-(4-chlorophenyl)-5-methyl-N-[(aR)-6-[(4-carbamoyl-1-methyl-1H-pyrazol-3-yl)oxy]spiro[3.3]heptan-2-yl]-1H-pyrazole-4-carboxamide], the IC50 falls from 359 nM to 113 nM (3.2-fold).

First: COc1ccc(-n2ncc(C(=O)N[C@H]3C[C@]4(C3)C[C@H](Oc3nn(C)cc3C(N)=O)C4)c2C)cn1 (stereo partly drawn) [Example 48, 1-(6-methoxypyridin-3-yl)-5-methyl-N-[(aR)-6-[(4-carbamoyl-1-methyl-1H-pyrazol-3-yl)oxy]spiro[3.3]heptan-2-yl]-1H-pyrazole-4-carboxamide]
Second: COc1ccc(-n2ncc(C(=O)N[C@H]3C[C@]4(C3)C[C@H](Oc3nn(C5CC5)cc3C(N)=O)C4)c2C)cn1 (stereo partly drawn) [Example 50, 1-cyclopropyl-3-{[(aR)-6-[1-(6-methoxypyridin-3-yl)-5-methyl-1H-pyrazole-4-amido]spiro[3.3]heptan-2-yl]oxy}-1H-pyrazole-4-carboxamide]
The IC50 of the first is 2.1-fold higher: 685 nM for the first, 322 nM for the second. The second is the more potent here.

Going from `Cc1c(C(=O)N[C@H]2C[C@]3(C2)C[C@H](Oc2nn(-c4ccccc4)cc2C(N)=O)C3)cnn1-c1ccc(Cl)cc1` (stereo partly drawn) [Example 49, 1-phenyl-3-{[(aR)-6-[1-(4-chlorophenyl)-5-methyl-1H-pyrazole-4-amido]spiro[3.3]heptan-2-yl]oxy}-1H-pyrazole-4-carboxainide] to `Cc1c(C(=O)N[C@H]2C[C@]3(C2)C[C@H](Oc2nn(C(F)F)cc2C(N)=O)C3)cnn1-c1ccc(Cl)cc1` (stereo partly drawn) [Example 55, 1-(4-chlorophenyl)-5-methyl-N-[(aR)-6-{[4-carbamoyl-1-(difluoromethyl)-1H-pyrazol-3-yl]oxy}spiro[3.3]heptan-2-yl]-1H-pyrazole-4-carboxamide], the IC50 falls from 450 nM to 78.3 nM (5.7-fold).

Compared with `Cc1c(C(=O)N[C@H]2C[C@]3(C2)C[C@H](Oc2nn(C4CC4)cc2C(N)=O)C3)cnn1-c1ccc(Cl)cc1` (stereo partly drawn) [Example 51, 1-cyclopropyl-3-{[(aR)-6-[1-(4-chlorophenyl)-5-methyl-1H-pyrazole-4-amido]spiro[3.3]heptan-2-yl]oxy}-1H-pyrazole-4-carboxamide], `Cc1c(C(=O)N[C@H]2C[C@]3(C2)C[C@H](Oc2nn(C4CC4)cc2C(N)=O)C3)cnn1-c1ccccc1` (stereo partly drawn) [Example 65, 1-cyclopropyl-3-{[(aR)-6-(5-methyl-1-phenyl-1H-pyrazole-4-amido)spiro[3.3]heptan-2-yl]oxy}-1H-pyrazole-4-carboxamide] is 3.1-fold higher in IC50: 44.8 nM for the first, 141 nM for the second.

First: NC(=O)c1cn(C(F)F)nc1O[C@H]1C[C@@]2(C[C@H](NC(=O)c3cnn4cc(OCC(O)(C(F)(F)F)C(F)(F)F)ccc34)C2)C1 (stereo partly drawn) [Example 52, 1-(difluoromethyl)-3-{[(aR)-6-{6-[3,3,3-trifluoro-2-hydxoxy-2-(trifluoromethyl)propoxy]pyrazolo [1,5-a]pyridine-3-amido}spiro[3.3]heptan-2-yl]oxy}-1H-pyrazole-4-carboxamide]
Second: NC(=O)c1cn(C(F)F)nc1O[C@H]1C[C@@]2(C[C@H](NC(=O)c3cnn4cc(OCC(F)(F)F)ccc34)C2)C1 (stereo partly drawn) [Example 53, 1-(difluoromethyl)-3-{[(aR)-6-[6-(2,2,2-trifluoroethoxy)pyrazolo[1,5-a]pyridine-3-amido]spiro[3.3]heptan-2-yl]oxy}-1H-pyrazole-4-carboxamide]
The IC50 of the first is 1.5-fold higher: 33.9 nM for the first, 22 nM for the second.

`Cc1c(C(=O)N[C@H]2C[C@]3(C2)C[C@H](Oc2nn(C(F)F)cc2C(N)=O)C3)cnn1-c1ccc(C#N)cc1` (stereo partly drawn) [Example 54, 1-(4-cyanophenyl)-5-methyl-N-[(aR)-6-{[4-carbamoyl-1-(difluoromethyl)-1H-pyrazol-3-yl]oxy}spiro[3.3]heptan-2-yl]-1H-pyrazole-4-carboxamide] and `Cc1c(C(=O)N[C@H]2C[C@]3(C2)C[C@H](Oc2nn(C4CC4)cc2C(N)=O)C3)cnn1-c1ccc(F)cc1F` (stereo partly drawn) [Example 66, 1-cyclopropyl-3-{[(aR)-6-[1-(2,4-difluorophenyl)-5-methyl-1H-pyrazole-4-amido]spiro[3.3]heptan-2-yl]oxy}-1H-pyrazole-4-carboxamide] are within 1.5-fold of each other in IC50: 253 nM for the first, 225 nM for the second.

Compared with `NC(=O)c1cn(C2CC2)nc1O[C@H]1C[C@@]2(C[C@H](NC(=O)c3cnn4cc(OCC(F)(F)F)ccc34)C2)C1` (stereo partly drawn) [Example 56, 1-cyclopropyl-3-{[(aR)-6-[6-(2,2,2-trifluoroethoxy)pyrazolo [1,5-a]pyridine-3-amido]spiro[3.3]heptan-2-yl]oxy}-1H-pyrazole-4-carboxamide], `NC(=O)c1cn(C2CC2)nc1O[C@H]1C[C@@]2(C[C@H](NC(=O)c3cnn4cc(OCC(F)F)ccc34)C2)C1` (stereo partly drawn) [Example 57, 1-cyclopropyl-3-{[(aR)-6-[6-(2,2-difluoroethoxy)pyrazolo[1,5-a]pyridine-3-amido]spiro[3.3]heptan-2-yl]oxy}-1H-pyrazole-4-carboxamide] is 3.3-fold lower in IC50: 53.2 nM for the first, 15.9 nM for the second.

First: NC(=O)c1cn(C2CC2)nc1O[C@H]1C[C@@]2(C[C@H](NC(=O)c3nc(C(F)(F)F)n4ccccc34)C2)C1 (stereo partly drawn) [Example 58, 1-cyclopropyl-3-{[(aR)-6-[3-(trifluoromethyl)imidazo[1,5-a]pyridine-1-amido]spiro[3.3]heptan-2-yl]oxy}-1H-pyrazole-4-carboxamide]
Second: NC(=O)c1cn(C2CC2)nc1O[C@H]1C[C@@]2(C[C@H](NC(=O)c3nc(C(F)(F)F)n4cc(Br)ccc34)C2)C1 (stereo partly drawn) [Example 60, 1-cyclopropyl-3-{[(aR)-6-[6-bromo-3-(trifluoromethyl)imidazo[1,5-a]pyridine-1-amido]spiro[3.3]heptan-2-yl]oxy}-1H-pyrazole-4-carboxamide]
The IC50 of the first is 5.7-fold higher: 204 nM for the first, 35.5 nM for the second.

`NC(=O)c1cn(C2CC2)nc1O[C@H]1C[C@@]2(C[C@H](NC(=O)c3nc(C(F)(F)F)n4cc(-c5ccc(F)nc5)ccc34)C2)C1` (stereo partly drawn) [Example 59, 1-cyclopropyl-3-{[(aR)-6-[6-(6-fluoropyridin-3-yl)-3-(trifluoromethyl)imidazo[1,5-a]pyridine-1-amido]spiro[3.3]heptan-2-yl]oxy}-1H-pyrazole-4-carboxamide] and `NC(=O)c1sc(C2CC2)nc1O[C@H]1C[C@@]2(C[C@H](NC(=O)c3nc(C(F)(F)F)n4cc(-c5ccc(F)nc5)ccc34)C2)C1` (stereo partly drawn) [Example 63, 2-cyclopropyl-4-{[(aR)-6-[6-(6-fluoropyridin-3-yl)-3-(trifluoromethyl)imidazo[1,5-a]pyridine-1-amido]spiro[3.3]heptan-2-yl]oxy}-1,3-thiazole-5-carboxamide] are within 1.5-fold of each other in IC50: 5.3 nM for the first, 6.1 nM for the second.

Going from `NC(=O)c1sc(C2CC2)nc1O[C@H]1C[C@@]2(C[C@H](NC(=O)c3cnn4cc(OCC(O)(C(F)(F)F)C(F)(F)F)ccc34)C2)C1` (stereo partly drawn) [Example 61, 2-cyclopropyl-4-{[(aR)-6-{6-[3,3,3-trifluoro-2-hydroxy-2-(trifluoromethyl)propoxy]pyrazolo[1,5-a]pyridine-3-amido}spiro[3.3]heptan-2-yl]oxy}-1,3-thiazole-5-carboxamide] to `NC(=O)c1sc(C2CC2)nc1O[C@H]1CC2(C[C@H](NC(=O)c3cnn4cc(OCC(F)(F)F)ccc34)C2)C1` (stereo partly drawn) [Example 62, 2-cyclopropyl-4-{[(aR)-6-[6-(2,2,2-trifluoroethoxy)pyrazolo [1,5-a]pyridine-3-amido]spiro[3.3]heptan-2-yl]oxy}-1,3-thiazole-5-carboxamide], the IC50 falls from 55.5 nM to 11.6 nM (4.8-fold).

Compared with `NC(=O)c1sc(C2CC2)nc1O[C@H]1C[C@@]2(C[C@H](NC(=O)c3nc(C(F)(F)F)n4ccccc34)C2)C1` (stereo partly drawn) [Example 64, 2-cyclopropyl-4-{[(aR)-6-[3-(trifluoromethyl)imidazo[1,5-a]pyridine-1-amido]spiro[3.3]heptan-2-yl]oxy}-1,3-thiazole-5-carboxamide], `Cc1c(C(=O)N[C@H]2C[C@]3(C2)C[C@H](Oc2nc(C4CC4)sc2C(N)=O)C3)cnn1-c1ccc(F)cc1F` (stereo partly drawn) [Example 67, 2-cyclopropyl-4-{[(aR)-6-[1-(2,4-difluorophenyl)-5-methyl-1H-pyrazole-4-amido]spiro[3.3]heptan-2-yl]oxy}-1,3-thiazole-5-carboxamide] is 12-fold higher in IC50: 11.4 nM for the first, 142 nM for the second.

Compared with `CC(C)(O)COc1ccc2c(C(=O)N[C@H]3C[C@]4(C3)C[C@H](Oc3nn(C5CC5)cc3C(N)=O)C4)cnn2c1C1CC1` (stereo partly drawn) [Example 69, 1-cyclopropyl-3-({(aR)-6-[7-cyclopropyl-6-(2-hydroxy-2-methylpropoxy)pyrazolo [1,5-a]pyridine-3-amido]spiro[3.3]heptan-2-yl}oxy)-1H-pyrazole-4-carboxamide], `CC(C)(O)COc1ccc2c(C(=O)N[C@H]3C[C@]4(C3)C[C@H](Oc3nc5ccccc5cc3C(N)=O)C4)cnn2c1C1CC1` (stereo partly drawn) [Example 71, 2-(((aR)6-(7-cyclopropyl-6-(2-hydroxy-2-methylpropoxy)pyrazolo [1,5-a]pyridine-3-carboxamido)spiro [3.3]heptan-2-yl)oxy)quinoline-3-carboxamide] is 1.9-fold higher in IC50: 4.5 nM for the first, 8.7 nM for the second. The first is the more potent here.

With `Cc1nc(O[C@H]2C[C@@]3(C[C@H](NC(=O)c4cnn5cc(OCC(F)F)ccc45)C3)C2)c(C(N)=O)s1` (stereo partly drawn) [Example 70, 2-methyl-4-{[(aR)-6-[6-(2,2-difluoroethoxy)pyrazolo [1,5-a]pyridine-3-amido]spiro[3.3]heptan-2-yl]oxy}-1,3-thiazole-5-carboxamide] the IC50 was 45.4 nM.
